The results in this text go back to PubChem BioAssay (NCI).

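Each compound was tested at five concentrations against cells in 96-well plates for 48 hours. GI50: concentration for 50% inhibition of growth. TGI: concentration producing complete growth inhibition.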

What all share (assay): DTP human tumour cell line panel, 48 h
The subject of assay [1] is SF-268 CNS.
In assay [2] the test system is HCT-116 colon.
Assay [3] relates to A549 NSCLC.
Assay [4] deals with SNB-75 CNS.
In assay [5] the test system is NCI-H522 lung.
The test system of assay [6] is UO-31 renal.
Assay [7] concerns UACC-62 melanoma.
Assay [8] has as its system SW-620 colon.
For assay [9], the system named is DU-145 prostate.

One may read the TGI as the concentration at which net growth stops. The low end stands for more potent growth arrest, the high end for less potent growth arrest. What is called GI50 is the concentration giving 50% growth inhibition.

As for `COc1cc([C@@H]2c3cc4c(cc3[C@@H](NC(=O)c3ccc(C#N)cc3)C3COC(=O)[C@@H]32)OCO4)cc(OC)c1O` (stereo partly drawn), the total growth inhibition concentration (TGI) in assay [1] was 16.9 µM; in assay [2] it was 3.29 µM; in [3], 1.64 µM; in assay [4] it was 5.49 µM; in assay [5], 2.39 µM; in [6], 15.3 µM. The TGI in assay [7] turned out to be 2.19 µM; in assay [8], 10.7 µM.

For the compound `NNC(=O)C(=O)N/N=C1/CCCC1C(=O)CCC(=O)Nc1ccc(Cl)cc1` (stereo not drawn), the TGI in assay [1], in assay [2], in assay [3], in assay [4], in assay [5] and in assay [6] was over 100 µM throughout. Further, the TGI is 24 µM in [7] and over 100 µM in assay [8].

In the case of `O=C1NC2=C(CCCCC/C2=N\O)C12CCCCCC2`, the concentration for total growth inhibition (TGI) in assay [1], in [2], in assay [3], in [4], in assay [5] and in assay [6] was over 100 µM each time. Moreover, the TGI in [7] and in assay [8] was over 100 µM in each case.

Take `O=[N+]([O-])c1cccc(C2=NN(c3ccccc3)C3c4cc(Br)ccc4OCC23)c1` (stereo not drawn): the TGI in [1], in [2], in assay [3], in assay [4], in assay [5] and in assay [6] was over 100 µM each time. In assay [8], this compound returned a TGI of over 100 µM.

As to `Cc1nc2ccccc2nc1CC(=O)C(=O)Nc1ccc(Cl)cc1Cl`, the TGI in assay [1], in [2], in assay [3], in assay [4], in [5] and in [6] was over 100 µM throughout. The total growth inhibition concentration (TGI) in assay [7] and in assay [8] was over 100 µM in each case.

Take `O=C1[C@@H]2C(c3c(Cl)cccc3Cl)=NO[C@@H]2C(=O)N1c1ccc(Cc2ccc(N3C(=O)[C@H]4C(c5c(Cl)cccc5Cl)=NO[C@H]4C3=O)cc2)cc1`: the TGI in assay [1], in [3], in assay [4], in assay [6], in assay [7] and in assay [8] was over 100 µM each time.

For the compound `Cc1ccc2c(c1)CN1c3ccc(C)cc3CN2C1c1ccccc1O`, the total growth inhibition concentration (TGI) is over 100 µM in assay [1]; over 100 µM in assay [2]; over 100 µM in assay [3]; 9.08 µM in assay [4]; over 100 µM in [5]; 88.2 µM in assay [6]. Moreover, the TGI in assay [7] and in [8] was over 100 µM throughout.

On to `N#CC(C(=O)C(=O)Nc1c(Cl)cccc1Cl)c1ccccc1` (stereo not drawn), for which the GI50 in [1], in assay [3], in assay [4], in [6], in [7] and in assay [8] was over 100 µM each time. Also, the TGI in [1], in [3], in assay [4], in assay [6], in assay [7] and in assay [8] was over 100 µM each time.

On to `Cc1nc(N)nc(CCC(=O)Nc2cccc(C(F)(F)F)c2)c1-c1ccc(Cl)cc1`, for which the concentration for total growth inhibition (TGI) in assay [1], in assay [2], in assay [3], in assay [4], in assay [5] and in assay [6] was over 100 µM each time. The TGI in [7] and in assay [8] was over 100 µM each time.

For the compound `O=[N+]([O-])c1ccccc1C1SCc2nc3ccccc3n21` (stereo not drawn), the TGI in assay [1], in assay [3], in assay [5], in assay [6], in assay [7] and in assay [8] was over 100 µM each time.

In the case of `COc1cc(Nc2cnc3ccc(C(F)(F)F)cc3n2)cc(OC)c1OC`, the concentration for total growth inhibition (TGI) in assay [1], in [2], in [3], in assay [6] and in assay [8] was over 100 µM in each case.

Regarding `FC(F)(F)Oc1cccc(-c2cc(NCCCCCCNc3cc(-c4cccc(OC(F)(F)F)c4)nc4ccc(N5CCCC5)cc34)c3cc(N4CCCC4)ccc3n2)c1`, the GI50 in assay [1] is 1.94 µM; in [2], 2.21 µM; in assay [3], 2.05 µM; in assay [4] it was 1.66 µM; in [5] it was 2.05 µM; in [6] it was 1.54 µM. The GI50 in [7] was 1.77 µM; in assay [9] it was 2.46 µM; in [8], 1.81 µM. Besides, the TGI in assay [1] turned out to be 3.9 µM; in assay [2] it was 5.54 µM; in [3], 4.49 µM; in [4], 3.16 µM; in assay [5], 4.76 µM; in assay [6], 2.88 µM. Besides, the TGI in assay [7] turned out to be 3.16 µM; in [9], 5.76 µM; in assay [8], 3.35 µM.

As for `COC(=O)C1C(=O)O[C@@H](c2ccc3c(c2)OCO3)C1C(=O)OC` (mixture of isomers), the TGI in [1], in assay [2], in assay [3], in assay [4], in [5] and in assay [6] was over 100 µM in each case. Further, the TGI in assay [7] and in assay [8] was over 100 µM throughout.

Regarding `CCN1C(=S)N(CC)C2C1NC(=S)N2/N=C/C=C/c1ccccc1OC` (stereo not drawn), the GI50 in assay [1] is 0.913 µM; in assay [2], 0.326 µM; in assay [3], 0.503 µM; in [4], 0.0935 µM; in assay [5], 0.137 µM; in assay [6] it was 0.621 µM. Also, the GI50 in assay [7] was 0.33 µM; in [9], 0.354 µM; in [8], 0.338 µM. The TGI in [1] was 44.8 µM; in [2], over 36.3 µM; in [3], over 100 µM; in [4], 0.606 µM; in assay [5] it was 1.19 µM; in [6], over 93 µM. In addition, the TGI in [7] is 25.6 µM; in assay [9], 25.3 µM; in assay [8] it was over 100 µM.
